Source: patent US20240246959A1, “BENZIMIDAZOLE DERIVATIVE AND PREPARATION METHOD THEREFOR AND MEDICAL USE THEREOF” (Shenzhen Salubris Pharmaceuticals Co., Ltd., priority 2020, published 2024)

Legend:
human GLP-1 R = target: T1, human GLP-1 R (Homo sapiens, UniProt P43220); assay: cAMP signal activation in human GLP1R cells (hGLP1R-U2OS, HTRF); assay type: cell-based
T1 construct: expressed in transfected cells
Protocol: A cell line stably expressing human GLP1 R (hGLP1R-U2OS) was used in this experiment. The cells were cultured in a growth medium (complete medium, DMEM+10% FBS+500 μg/mL G418 (Promega)) in an incubator at 37° C. and has 5% CO2 saturated humidity.
hGLP1R-U2OS was inoculated into 384-well plate with 1.0×10^4 cells/well (5 μL) (cell working solution: DMEM+0.1% BSA+1 mM IBMX (available from Bide Pharmatech Ltd.)), and was placed in an incubator at 37° C. and held for 30 min. The compounds to be tested were diluted stage-by-stage with Stimulation Buffer 1 (1×) in the kit, and the diluted compounds were added to the culture plate with 5 μL/well. They were incubated in an incubator at 37° C. for 30 min. Then, 5 μL/well of cAMP-d2 prepared with Lysis & Detection buffer and 5 μL/well of Anti CAMP-Cryptate working solution were added successively, and they were incubated at room temperature for 60 min before detection.
The ratio of signal emitted by donor to […] in each well was calculated as follows: HTRF rate=signal at 665 nm/signal at 620 nm×104, and then the HTRF rate was converted into a reaction rate (%). The concentration-response curve of each Example compound was created by a 4-parameter equation as Y=Bottom+(Top−Bottom)/(1+10^((Log IC50−X)*HillSlope)), and the half maximal (50%) effective concentration (EC50) was calculated.

[1] = Pharmacokinetic study on rat; assay type: in vivo, SD rats; details: for F: 5 mg/kg p.o vs 1 mg/kg i.v; for AUC(0-t) / Cmax / clearance / half-life: male, Sprague-Dawley (SD), plasma
Description: • SD rats: male, 180-250 g, purchased from Beijing Vital River Laboratory Animal Technology Co., Ltd. • Reagents: DMSO (dimethyl sulfoxide), PEG-400 (polyethylene glycol 400), physiological saline, heparin, acetonitrile, formic acid, and propranolol (internal standard), all of which are commercially available. • Instruments: Thermo Fisher Scientific LC-MS (U300 UPLC, TSQ QUANTUMN ULTRA triple quadrupole mass spectrometer).
A compound was weighed and dissolved in a DMSO-PEG-400-physiological saline (5:60:35, v/v/v) system. After the rats were administered with the compound intravenously or by gavage, 200 μL of venous blood samples were collected at 15 min, 30 min, 1 h, 2 h, 5 h, 7 h, and 24 h (for i.v. group an additional collection was performed at 5 min) in heparinized EP tubes respectively, which were centrifuged at 12,000 rpm for 2 min, and the plasma was frozen at −80° C. for further testing. A certain amount of the test substance was precisely weighed and dissolved in DMSO to obtain a stock solution with a concentration of 2 mg/mL. An appropriate amount of the stock solution of the compound was accurately pipetted and diluted with acetonitrile to prepare a standard series solution. 20 μL of each of the above standard series solution was accurately pipetted, added with 180 μL of blank plasma, and vortexed mixed to prepare plasma samples corresponding to plasma concentrations of 0.3, 1, 3, 10, 30, 100, 300, 1000, 3000 ng/mL. Two-sample analysis was performed for each concentration to establish a standard curve. 30 μL of plasma (for samples that are obtained at 5 min, 15 min, 30 min, and 1 h after intravenous administration, the plasma were diluted 10 times) was taken, added with 200 μL of a solution of internal standard propranolol in acetonitrile (50 ng/ml), and vortexed mixed. The mixture was then added with 100 μL of pure water, and vortexed and mixed again. It was centrifuged at 4000 rpm for 5 min, and the supernatant was collected for LC-MS analysis. LC-MS detection conditions were as follows. • Chromatographic column: Thermo Scientific HYPERSIL GOLD C-18 UPLC column, 100*2.1 mm, 1.7 μm. • Mobile phase: water (with 0.1% formic acid)-acetonitrile; gradient elution was performed according to the table below.
After blood drug concentrations was detected by LC-MS, WinNonlin 6.1 software was used to calculate pharmacokinetic parameters based on non-compartmental model.

[2] = target: T2, hERG potassium ion channel (Homo sapiens, UniProt Q12809); assay: Effect on hERG potassium ion channel (CHO-hERG, manual patch clamp); assay type: cell-based
T2 construct: expressed in transfected cells
Protocol: A cell line CHO-hERG from ovary of Chinese hamster that stably expresses hERG potassium channel was used in this experiment. The cells were cultured in F12 complete medium containing 10% FBS, 1% antibiotics (G418), and 89 μg/mL hygromycin. The recovery medium was a F12 medium containing 10% FBS. Culture was performed at 37° C. and under 5% CO2.
The inhibitory activity of the compounds of the present invention in series gradient concentrations on the potassium channel in CHO-hERG was determined by manual patch clamp system.

T1 sequence (P43220 24-463): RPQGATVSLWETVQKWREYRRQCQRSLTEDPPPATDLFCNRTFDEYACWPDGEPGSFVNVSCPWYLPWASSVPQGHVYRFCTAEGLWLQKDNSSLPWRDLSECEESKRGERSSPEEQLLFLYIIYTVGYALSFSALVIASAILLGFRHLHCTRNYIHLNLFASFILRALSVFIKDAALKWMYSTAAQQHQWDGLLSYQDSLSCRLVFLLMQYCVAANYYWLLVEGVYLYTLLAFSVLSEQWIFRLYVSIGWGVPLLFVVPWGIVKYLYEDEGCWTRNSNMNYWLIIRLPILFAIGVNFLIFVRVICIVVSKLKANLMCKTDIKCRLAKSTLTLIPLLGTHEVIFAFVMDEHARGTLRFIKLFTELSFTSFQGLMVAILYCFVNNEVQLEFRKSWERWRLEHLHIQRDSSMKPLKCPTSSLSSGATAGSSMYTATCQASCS
T2 sequence (Q12809 whole entry): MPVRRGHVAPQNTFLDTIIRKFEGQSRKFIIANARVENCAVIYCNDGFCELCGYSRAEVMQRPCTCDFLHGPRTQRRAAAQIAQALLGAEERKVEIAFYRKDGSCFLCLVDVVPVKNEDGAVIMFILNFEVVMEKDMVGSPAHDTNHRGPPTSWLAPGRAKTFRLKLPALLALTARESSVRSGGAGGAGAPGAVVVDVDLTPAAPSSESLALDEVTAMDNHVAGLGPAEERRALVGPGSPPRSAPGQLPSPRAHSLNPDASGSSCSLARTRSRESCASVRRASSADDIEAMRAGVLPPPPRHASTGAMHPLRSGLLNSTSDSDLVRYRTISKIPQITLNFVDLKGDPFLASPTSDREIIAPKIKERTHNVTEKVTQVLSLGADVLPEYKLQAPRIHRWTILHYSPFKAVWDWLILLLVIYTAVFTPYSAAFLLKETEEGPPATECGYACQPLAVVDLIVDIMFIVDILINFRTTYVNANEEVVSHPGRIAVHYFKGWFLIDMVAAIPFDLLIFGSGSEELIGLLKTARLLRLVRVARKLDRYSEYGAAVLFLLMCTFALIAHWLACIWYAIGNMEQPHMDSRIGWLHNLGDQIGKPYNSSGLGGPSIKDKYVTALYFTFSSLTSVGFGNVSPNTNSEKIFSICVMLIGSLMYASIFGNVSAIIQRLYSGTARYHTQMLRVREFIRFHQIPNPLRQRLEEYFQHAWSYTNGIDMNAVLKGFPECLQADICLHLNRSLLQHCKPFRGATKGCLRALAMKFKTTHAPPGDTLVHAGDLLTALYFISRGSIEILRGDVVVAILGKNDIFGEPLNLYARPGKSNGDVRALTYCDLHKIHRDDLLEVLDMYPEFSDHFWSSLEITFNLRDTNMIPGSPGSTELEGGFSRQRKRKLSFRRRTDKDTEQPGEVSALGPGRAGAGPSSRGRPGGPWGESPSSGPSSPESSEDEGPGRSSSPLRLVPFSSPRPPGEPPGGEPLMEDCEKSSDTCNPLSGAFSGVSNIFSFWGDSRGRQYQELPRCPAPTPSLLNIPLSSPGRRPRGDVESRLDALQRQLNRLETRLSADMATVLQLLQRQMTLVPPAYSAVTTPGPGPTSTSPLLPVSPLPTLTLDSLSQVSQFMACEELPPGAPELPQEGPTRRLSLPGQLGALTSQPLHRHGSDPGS

| Structure (SMILES) | EC50 (human GLP-1 R) [nM] | F [1] [%] | AUC(0-t) ([1]; iv, 1 mg/kg, i.v) [ng·h/mL] | Cmax ([1]; iv, 1 mg/kg, i.v) [ng/mL] | clearance ([1]; iv, 1 mg/kg, i.v) [mL/min/kg] | half-life ([1]; iv, 1 mg/kg, i.v) [h] | AUC(0-t) ([1]; po, 5 mg/kg, p.o) [ng·h/mL] | Cmax ([1]; po, 5 mg/kg, p.o) [ng/mL] | half-life ([1]; po, 5 mg/kg, p.o) [h] | IC50 [2] [nM] |
| --- | --- | --- | --- | --- | --- | --- | --- | --- | --- | --- |
| C[C@@H](c1nc2ccc(C(=O)O)cc2n1C[C@@H]1CCO1)N1CCN(c2cccc(OCc3ccc(C#N)cc3F)n2)CC1 [Example 20A, 2-((S)-1-(4-(6-((4-cyano-2-fluorobenzyl)oxy)pyridin-2-yl)piperazin-1-yl)ethyl)-1-(((S)-oxetan-2-yl)methyl)-1H-benzo[d]imidazol-6-carboxylic acid] | 4.66 | 46.4 | 539 | 1290 | 30.7 | 0.31 | 1250 | 348 | 1.17 | > 30000 |
| C[C@@H](c1nc2ccc(C(=O)O)nc2n1C[C@@H]1CCO1)N1CCC(c2cccc(OCc3ccc(Cl)cc3F)n2)CC1 [Example 12, 2-((S)-1-(4-(6-((4-chloro-2-fluorobenzyl)oxy)pyridin-2-yl)piperidin-1-yl)ethyl)-3-(((S)-oxetan-2-yl)methyl)-3H-imidazolo[4,5-b]pyridin-5-carboxylic acid] | 3.89 | 168.2 | 1700 | 2250 | 9.79 | 0.87 | 14300 | 3780 | 2.69 | – |
| C[C@@H](c1nc2ccc(C(=O)O)cc2n1C[C@@H]1CCO1)N1CCC(c2cccc(OCc3cc(F)ccc3F)n2)CC1 [Example 5, 2-((S)-1-(4-(6-((2,5-difluorobenzyl)oxy)pyridin-2-yl)piperidin-1-yl)ethyl)-1-(((S)-oxetan-2-yl)methyl)-1H-benzo[d]imidazol-6-carboxylic acid] | 1.04 | 72.8 | 5770 | 4730 | 2.88 | 3.87 | 21000 | 3470 | 2.76 | – |
| C[C@@H](c1nc2ccc(C(=O)O)cc2n1C[C@@H]1CCO1)N1CCC(c2cccc(OCc3ccc(C#N)cc3F)n2)CC1 [Example 2A, 2-((S)-1-(4-(6-((4-cyano-2-fluorobenzyl)oxy)pyridin-2-yl)piperidin-1-yl)ethyl)-1-(((S)-oxetan-2-yl)methyl)-1H-benzo[d]imidazol-6-carboxylic acid] | 3.18 | 63.5 | 1250 | 2330 | 13.3 | 0.71 | 3970 | 1290 | 3.11 | – |
